Each block holds one compound with its values, some of them ahead of it.
Columns and labels:
[1] = target: Adenosine receptor A2a (Homo sapiens, UniProt P29274)
[2] = target: T1, Alpha-2A adrenergic receptor (Homo sapiens, UniProt P08913); format: functional, cell-based
T1 sequence (P08913 whole entry): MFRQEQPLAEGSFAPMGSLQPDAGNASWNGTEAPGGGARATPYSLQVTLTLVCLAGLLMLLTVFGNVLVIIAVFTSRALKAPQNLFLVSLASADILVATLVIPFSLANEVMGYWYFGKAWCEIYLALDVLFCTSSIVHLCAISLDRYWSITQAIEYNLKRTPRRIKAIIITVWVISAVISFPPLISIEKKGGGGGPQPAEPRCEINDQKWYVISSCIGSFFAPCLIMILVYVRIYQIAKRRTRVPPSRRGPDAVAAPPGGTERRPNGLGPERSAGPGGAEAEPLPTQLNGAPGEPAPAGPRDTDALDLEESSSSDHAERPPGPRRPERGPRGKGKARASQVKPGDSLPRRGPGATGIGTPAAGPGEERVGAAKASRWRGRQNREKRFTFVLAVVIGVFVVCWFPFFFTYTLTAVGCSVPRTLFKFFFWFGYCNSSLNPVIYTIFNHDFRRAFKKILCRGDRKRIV

[3] = target: Gamma-aminobutyric acid receptor subunit alpha-1 (Rattus norvegicus, UniProt P62813); format: functional
Chain of Gamma-aminobutyric acid receptor subunit alpha-1 (P62813 whole entry): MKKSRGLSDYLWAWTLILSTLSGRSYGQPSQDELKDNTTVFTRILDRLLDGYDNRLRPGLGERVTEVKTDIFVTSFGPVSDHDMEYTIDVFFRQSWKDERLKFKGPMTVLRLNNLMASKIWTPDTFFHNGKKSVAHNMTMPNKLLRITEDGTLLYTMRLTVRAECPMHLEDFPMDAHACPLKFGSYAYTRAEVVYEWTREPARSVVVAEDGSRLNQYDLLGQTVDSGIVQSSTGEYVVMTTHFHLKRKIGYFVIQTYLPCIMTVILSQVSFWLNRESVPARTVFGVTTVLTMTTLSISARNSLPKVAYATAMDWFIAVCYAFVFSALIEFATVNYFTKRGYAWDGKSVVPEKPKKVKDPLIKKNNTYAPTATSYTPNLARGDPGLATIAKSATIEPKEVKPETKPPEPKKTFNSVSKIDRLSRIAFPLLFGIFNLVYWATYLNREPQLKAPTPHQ

[4] = target: Glutamate receptor ionotropic, NMDA 1 (Rattus norvegicus, UniProt P35439)
[5] = target: Histamine H2 receptor (Homo sapiens, UniProt P25021); format: functional, cell-based
Chain of Histamine H2 receptor (P25021 whole entry): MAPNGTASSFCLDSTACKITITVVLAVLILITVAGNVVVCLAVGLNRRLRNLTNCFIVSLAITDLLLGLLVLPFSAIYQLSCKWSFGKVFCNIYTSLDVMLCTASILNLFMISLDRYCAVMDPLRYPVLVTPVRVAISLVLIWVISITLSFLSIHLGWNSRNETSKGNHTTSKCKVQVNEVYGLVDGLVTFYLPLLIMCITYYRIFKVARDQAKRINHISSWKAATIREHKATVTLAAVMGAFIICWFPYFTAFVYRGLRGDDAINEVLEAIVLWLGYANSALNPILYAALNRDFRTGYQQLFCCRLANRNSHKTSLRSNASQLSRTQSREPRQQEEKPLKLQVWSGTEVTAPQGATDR

[6] = target: T2, 5-hydroxytryptamine receptor 2C (Homo sapiens, UniProt P28335)
T2 sequence (P28335 whole entry): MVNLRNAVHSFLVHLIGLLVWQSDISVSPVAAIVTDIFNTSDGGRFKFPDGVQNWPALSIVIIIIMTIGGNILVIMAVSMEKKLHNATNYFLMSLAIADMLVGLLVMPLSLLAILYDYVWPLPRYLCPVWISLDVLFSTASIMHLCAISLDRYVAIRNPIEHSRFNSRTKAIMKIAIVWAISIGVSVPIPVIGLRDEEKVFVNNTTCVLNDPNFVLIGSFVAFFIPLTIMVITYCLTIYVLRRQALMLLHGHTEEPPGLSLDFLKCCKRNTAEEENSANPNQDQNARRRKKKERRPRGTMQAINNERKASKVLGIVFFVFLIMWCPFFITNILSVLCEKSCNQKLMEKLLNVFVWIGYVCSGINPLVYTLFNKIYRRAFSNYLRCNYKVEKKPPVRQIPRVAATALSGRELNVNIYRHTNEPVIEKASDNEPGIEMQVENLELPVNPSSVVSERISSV

[7] = target: Melanocortin receptor 3 (Homo sapiens, UniProt P41968)
Chain of Melanocortin receptor 3 (P41968 whole entry): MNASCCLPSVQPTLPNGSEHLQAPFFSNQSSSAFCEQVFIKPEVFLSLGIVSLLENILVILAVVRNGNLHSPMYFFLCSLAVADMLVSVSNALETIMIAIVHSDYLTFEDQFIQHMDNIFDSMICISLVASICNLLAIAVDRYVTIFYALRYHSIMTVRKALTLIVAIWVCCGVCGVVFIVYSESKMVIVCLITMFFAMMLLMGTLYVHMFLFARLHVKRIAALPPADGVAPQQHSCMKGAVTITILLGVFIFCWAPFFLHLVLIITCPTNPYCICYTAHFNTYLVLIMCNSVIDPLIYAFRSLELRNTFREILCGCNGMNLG

[8] = target: 3',5'-cyclic-AMP phosphodiesterase 4D (Homo sapiens, UniProt Q08499); format: functional
Chain of 3',5'-cyclic-AMP phosphodiesterase 4D (Q08499 whole entry): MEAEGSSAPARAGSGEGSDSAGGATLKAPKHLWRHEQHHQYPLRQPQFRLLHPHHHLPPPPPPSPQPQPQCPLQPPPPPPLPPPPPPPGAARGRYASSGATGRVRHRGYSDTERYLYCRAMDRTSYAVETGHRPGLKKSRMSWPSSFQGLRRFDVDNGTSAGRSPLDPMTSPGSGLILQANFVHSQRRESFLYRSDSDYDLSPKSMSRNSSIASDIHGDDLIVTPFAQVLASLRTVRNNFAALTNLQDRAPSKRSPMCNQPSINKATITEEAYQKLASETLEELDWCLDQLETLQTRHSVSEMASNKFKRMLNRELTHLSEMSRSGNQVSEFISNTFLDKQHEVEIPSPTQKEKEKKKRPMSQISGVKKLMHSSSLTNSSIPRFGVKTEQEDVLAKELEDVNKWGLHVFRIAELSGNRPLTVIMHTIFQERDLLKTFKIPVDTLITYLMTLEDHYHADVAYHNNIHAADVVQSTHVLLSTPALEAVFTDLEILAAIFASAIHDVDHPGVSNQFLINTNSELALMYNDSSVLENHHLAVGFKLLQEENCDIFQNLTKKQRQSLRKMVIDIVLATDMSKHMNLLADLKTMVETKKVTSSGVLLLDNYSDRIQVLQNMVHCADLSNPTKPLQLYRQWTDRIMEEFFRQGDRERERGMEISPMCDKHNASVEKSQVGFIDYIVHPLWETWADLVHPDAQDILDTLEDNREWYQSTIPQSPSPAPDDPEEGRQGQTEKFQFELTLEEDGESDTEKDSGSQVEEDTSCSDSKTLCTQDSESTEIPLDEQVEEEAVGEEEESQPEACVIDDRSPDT

[9] = target: Sodium-dependent dopamine transporter (Homo sapiens, UniProt Q01959)
Chain of Sodium-dependent dopamine transporter (Q01959 whole entry): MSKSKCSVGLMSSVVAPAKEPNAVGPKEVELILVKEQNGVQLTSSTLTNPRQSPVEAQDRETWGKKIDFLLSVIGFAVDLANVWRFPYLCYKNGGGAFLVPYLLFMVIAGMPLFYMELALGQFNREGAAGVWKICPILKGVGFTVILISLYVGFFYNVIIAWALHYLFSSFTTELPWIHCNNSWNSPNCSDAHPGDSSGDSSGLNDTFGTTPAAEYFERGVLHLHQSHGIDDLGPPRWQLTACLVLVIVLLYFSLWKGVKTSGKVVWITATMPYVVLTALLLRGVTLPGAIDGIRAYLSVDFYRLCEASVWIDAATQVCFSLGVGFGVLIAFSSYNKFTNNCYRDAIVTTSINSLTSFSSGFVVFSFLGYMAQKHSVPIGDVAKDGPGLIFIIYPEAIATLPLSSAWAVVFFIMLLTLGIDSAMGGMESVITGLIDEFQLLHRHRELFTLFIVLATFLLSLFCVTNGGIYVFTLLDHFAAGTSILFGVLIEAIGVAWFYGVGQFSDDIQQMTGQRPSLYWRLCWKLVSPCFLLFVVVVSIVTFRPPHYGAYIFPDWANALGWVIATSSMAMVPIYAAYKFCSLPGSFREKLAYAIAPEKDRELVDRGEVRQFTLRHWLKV

[10] = target: Sodium-dependent noradrenaline transporter (Homo sapiens, UniProt P23975)
Chain of Sodium-dependent noradrenaline transporter (P23975 whole entry): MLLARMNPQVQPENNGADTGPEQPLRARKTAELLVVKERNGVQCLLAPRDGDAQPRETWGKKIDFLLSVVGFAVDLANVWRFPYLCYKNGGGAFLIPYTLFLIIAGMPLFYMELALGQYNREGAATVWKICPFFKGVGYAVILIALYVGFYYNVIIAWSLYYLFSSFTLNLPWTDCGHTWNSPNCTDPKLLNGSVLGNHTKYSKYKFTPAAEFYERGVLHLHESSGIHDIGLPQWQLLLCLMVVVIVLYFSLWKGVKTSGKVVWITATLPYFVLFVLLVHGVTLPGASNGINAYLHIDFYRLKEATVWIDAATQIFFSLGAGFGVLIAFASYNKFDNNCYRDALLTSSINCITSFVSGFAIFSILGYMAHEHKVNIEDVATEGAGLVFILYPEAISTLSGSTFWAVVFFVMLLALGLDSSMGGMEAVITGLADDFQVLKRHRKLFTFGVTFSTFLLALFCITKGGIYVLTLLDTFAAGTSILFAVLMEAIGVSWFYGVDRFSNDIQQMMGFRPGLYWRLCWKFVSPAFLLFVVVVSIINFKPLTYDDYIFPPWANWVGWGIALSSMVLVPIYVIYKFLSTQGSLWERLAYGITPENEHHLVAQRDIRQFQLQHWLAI

[11] = target: T3, Amine oxidase [flavin-containing] A (Homo sapiens, UniProt P21397); format: functional
T3 sequence (P21397 whole entry): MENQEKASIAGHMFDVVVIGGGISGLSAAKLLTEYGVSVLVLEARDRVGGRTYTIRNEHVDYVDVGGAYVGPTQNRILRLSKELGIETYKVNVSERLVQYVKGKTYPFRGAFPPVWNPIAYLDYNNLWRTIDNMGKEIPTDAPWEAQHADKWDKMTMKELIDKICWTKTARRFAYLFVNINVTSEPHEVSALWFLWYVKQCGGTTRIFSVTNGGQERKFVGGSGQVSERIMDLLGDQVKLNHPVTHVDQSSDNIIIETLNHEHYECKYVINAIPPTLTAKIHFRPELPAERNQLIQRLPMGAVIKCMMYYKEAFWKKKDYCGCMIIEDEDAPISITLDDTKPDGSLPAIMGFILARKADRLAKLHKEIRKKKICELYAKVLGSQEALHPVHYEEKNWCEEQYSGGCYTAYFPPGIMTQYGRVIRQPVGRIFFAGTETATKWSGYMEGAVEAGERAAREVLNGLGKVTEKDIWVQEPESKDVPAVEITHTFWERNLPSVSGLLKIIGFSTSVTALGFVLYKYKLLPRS

[12] = target: D(3) dopamine receptor (Homo sapiens, UniProt P35462)
Chain of D(3) dopamine receptor (P35462 whole entry): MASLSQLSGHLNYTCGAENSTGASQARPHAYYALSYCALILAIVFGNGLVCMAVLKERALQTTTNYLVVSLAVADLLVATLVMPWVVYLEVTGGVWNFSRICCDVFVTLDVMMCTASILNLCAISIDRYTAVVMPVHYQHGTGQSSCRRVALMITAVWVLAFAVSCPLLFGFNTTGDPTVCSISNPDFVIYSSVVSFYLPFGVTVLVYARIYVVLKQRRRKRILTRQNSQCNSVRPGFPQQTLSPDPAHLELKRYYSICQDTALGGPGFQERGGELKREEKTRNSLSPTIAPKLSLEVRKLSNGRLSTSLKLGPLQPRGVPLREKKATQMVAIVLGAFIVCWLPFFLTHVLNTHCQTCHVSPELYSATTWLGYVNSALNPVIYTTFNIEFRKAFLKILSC

[13] = target: T4, Muscarinic acetylcholine receptor M1 (Homo sapiens, UniProt P11229); format: functional
T4 sequence (P11229 whole entry): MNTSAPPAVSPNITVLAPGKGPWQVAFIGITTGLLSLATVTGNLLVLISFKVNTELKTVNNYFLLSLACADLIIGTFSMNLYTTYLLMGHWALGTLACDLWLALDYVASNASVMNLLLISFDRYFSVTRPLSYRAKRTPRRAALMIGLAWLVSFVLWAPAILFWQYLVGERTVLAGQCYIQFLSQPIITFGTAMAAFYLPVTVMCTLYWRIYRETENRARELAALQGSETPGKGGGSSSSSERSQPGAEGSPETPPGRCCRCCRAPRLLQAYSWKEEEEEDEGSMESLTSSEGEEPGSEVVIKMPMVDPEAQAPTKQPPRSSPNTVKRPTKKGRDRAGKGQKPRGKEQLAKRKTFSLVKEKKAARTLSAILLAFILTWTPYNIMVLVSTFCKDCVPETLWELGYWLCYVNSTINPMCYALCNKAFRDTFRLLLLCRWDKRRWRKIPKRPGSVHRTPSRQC

[14] = target: Histamine H1 receptor (Homo sapiens, UniProt P35367)
Chain of Histamine H1 receptor (P35367 whole entry): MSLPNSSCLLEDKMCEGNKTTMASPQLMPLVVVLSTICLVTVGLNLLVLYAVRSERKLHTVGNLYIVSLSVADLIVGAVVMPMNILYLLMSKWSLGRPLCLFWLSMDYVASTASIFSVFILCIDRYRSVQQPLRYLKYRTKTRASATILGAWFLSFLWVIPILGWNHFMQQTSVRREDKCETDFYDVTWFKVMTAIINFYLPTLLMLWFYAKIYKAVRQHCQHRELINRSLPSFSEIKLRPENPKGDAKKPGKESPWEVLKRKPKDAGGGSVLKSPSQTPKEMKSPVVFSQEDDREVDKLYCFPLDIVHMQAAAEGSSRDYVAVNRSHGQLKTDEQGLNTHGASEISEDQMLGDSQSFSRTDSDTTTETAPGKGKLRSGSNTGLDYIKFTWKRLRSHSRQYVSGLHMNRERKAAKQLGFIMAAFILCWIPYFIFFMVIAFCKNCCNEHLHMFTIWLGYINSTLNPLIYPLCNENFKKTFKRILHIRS
Also: assay procedure not described here.

Chain of Adenosine receptor A2a (P29274 whole entry): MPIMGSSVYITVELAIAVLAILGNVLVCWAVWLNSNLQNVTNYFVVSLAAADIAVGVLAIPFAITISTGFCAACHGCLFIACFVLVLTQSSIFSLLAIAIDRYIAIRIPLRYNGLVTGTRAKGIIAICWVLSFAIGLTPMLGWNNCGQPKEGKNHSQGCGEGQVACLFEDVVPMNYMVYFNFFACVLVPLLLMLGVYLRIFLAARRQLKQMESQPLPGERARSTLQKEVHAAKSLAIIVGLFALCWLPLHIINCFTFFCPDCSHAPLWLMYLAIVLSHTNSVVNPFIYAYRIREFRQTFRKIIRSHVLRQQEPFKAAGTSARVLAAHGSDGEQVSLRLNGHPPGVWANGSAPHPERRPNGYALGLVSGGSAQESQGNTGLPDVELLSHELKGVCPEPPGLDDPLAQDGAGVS

- AC50 [1]: > 30 µM
- AC50 [2]: > 10 µM
- AC50 [3]: > 10 µM
- AC50 [4]: > 10 µM
- AC50 [5]: > 10 µM
- AC50 [6]: 0.15 µM
- AC50 [7]: > 30 µM
- AC50 [8]: > 10 µM
- AC50 [9]: > 10 µM
- AC50 [11]: > 10 µM
- AC50 [12]: 0.075 µM
SMILES: CN(C)CCCN1c2ccccc2Sc2ccccc21 [PROMAZINE]

- AC50 [1]: > 30 µM
- AC50 [2]: > 30 µM
- AC50 [3]: > 30 µM
- AC50 [4]: 25 µM
- AC50 [14]: 0.65 µM
- AC50 [5]: > 30 µM
- AC50 [6]: 2.7 µM
- AC50 [7]: > 30 µM
- AC50 [8]: 28 µM
- AC50 [9]: 21 µM
- AC50 [10]: 0.022 µM
- AC50 [12]: 3 µM
SMILES: CN(CCCN1c2ccccc2CCc2ccccc21)CC(=O)c1ccc(Cl)cc1 [LOFEPRAMINE]

- AC50 [1]: > 10 µM
- AC50 [2]: > 10 µM
- AC50 [13]: > 10 µM
- AC50 [3]: > 10 µM
- AC50 [4]: > 10 µM
- AC50 [14]: > 10 µM
- AC50 [5]: > 10 µM
- AC50 [6]: > 30 µM
- AC50 [7]: > 10 µM
- AC50 [8]: > 30 µM
- AC50 [9]: > 10 µM
- AC50 [10]: > 10 µM
- AC50 [11]: > 10 µM
- AC50 [12]: > 30 µM
SMILES: NS(=O)(=O)c1cc(Cl)c(Cl)c(S(N)(=O)=O)c1 [DICHLORPHENAMIDE]

Second part, the compound before the results:

SMILES: C[N+](C)(C)CCOC(N)=O [CARBAMOYLCHOLINE]
- AC50 [1]: > 10 µM
- AC50 [2]: > 30 µM
- AC50 [3]: > 10 µM
- AC50 [4]: > 10 µM
- AC50 [5]: > 30 µM
- AC50 [6]: > 30 µM
- AC50 [7]: > 10 µM
- AC50 [8]: > 30 µM
- AC50 [9]: > 10 µM
- AC50 [10]: > 10 µM
- AC50 [11]: > 10 µM
- AC50 [12]: > 30 µM

SMILES: CN1C(=O)N(C)C2C1N(C)C(=O)N2C (configuration not stated) [MEBICAR]
- AC50 [2]: > 30 µM
- AC50 [13]: > 30 µM
- AC50 [3]: > 30 µM
- AC50 [4]: > 30 µM
- AC50 [14]: > 30 µM
- AC50 [5]: > 30 µM
- AC50 [6]: > 30 µM
- AC50 [8]: > 30 µM
- AC50 [11]: > 30 µM
- AC50 [12]: > 30 µM

SMILES: N[C@@H](CSCC(=O)O)C(=O)O [CARBOCYSTEINE]
- AC50 [1]: > 30 µM
- AC50 [2]: > 30 µM
- AC50 [13]: > 30 µM
- AC50 [3]: > 30 µM
- AC50 [4]: > 30 µM
- AC50 [14]: > 30 µM
- AC50 [5]: > 30 µM
- AC50 [6]: > 30 µM
- AC50 [7]: > 30 µM
- AC50 [8]: > 10 µM
- AC50 [9]: > 30 µM
- AC50 [10]: > 30 µM
- AC50 [11]: > 30 µM
- AC50 [12]: > 30 µM

SMILES: Nc1ccc(/N=N/c2ccccc2)c(N)n1 [PHENAZOPYRIDINE]
- AC50 [2]: > 30 µM
- AC50 [13]: 4.1 µM
- AC50 [3]: > 30 µM
- AC50 [4]: > 30 µM
- AC50 [14]: 4.5 µM
- AC50 [5]: > 30 µM
- AC50 [6]: 1.91 µM
- AC50 [8]: 14 µM
- AC50 [11]: > 30 µM
- AC50 [12]: 3.1 µM

SMILES: CC(=O)N[C@H]1[C@H]([C@H](O)[C@H](O)CO)OC(C(=O)O)=C[C@@H]1N=C(N)N [ZANAMIVIR]
- AC50 [1]: > 30 µM
- AC50 [2]: > 10 µM
- AC50 [13]: > 30 µM
- AC50 [3]: > 10 µM
- AC50 [4]: > 10 µM
- AC50 [14]: > 30 µM
- AC50 [5]: > 30 µM
- AC50 [6]: > 30 µM
- AC50 [7]: > 30 µM
- AC50 [8]: > 30 µM
- AC50 [9]: > 30 µM
- AC50 [10]: > 30 µM
- AC50 [11]: > 30 µM
- AC50 [12]: > 30 µM

From ChEMBL document CHEMBL5291721, “A preclinical secondary pharmacology resource illuminates target-adverse drug reaction associations of marketed drugs” (Nat Commun, 2023)
